Broadly, the IC50 is the point on the concentration scale where inhibition reaches its midpoint. Read a low IC50 as higher potency.

Square brackets hold non-standard residues; d marks the D form. Peptide text beside a SMILES is read from it. Dmt = Cc1cc(O)cc(C)c1C[C@H](N)C(=O)O; Orn = NCCC[C@H](N)C(=O)O Where only a bound is given, the exact number is not on record here.

Eight molecules from US20250051409A1, “MODULATORS OF PHOSPHATIDYLSERlNE DECARBOXYLASE AND USE THEREOF” (THE NATIONAL INSTITUTE FOR BIOTECHNOLOGY IN THE NEGEV LTD., priority 2021, published 2025) can be followed below.

The experiment concerns A549 lung cancer cell. It counts as cell-based, human. The note with it: 24 h. As for the experimental part:
(B) Inhibition of PSD activity by the 2F3 (●) or 1C11 (◯) peptide. PSD activity was measured using the DSB-3 method. (C-E) Cell proliferation inhibition following incubation of A549 cells with the indicated mitochondria- or nuclear-targeted peptides for 24 h in a serum-free medium, and cell proliferation was assayed using the SRB method. Results are the means±SEM (n=3). (F) A549 cells were incubated for 90 min with 5 μM of the mitochondria- or nuclear targeted FITC-labelled peptides, immunostained with anti-SMAC antibodies and with DAPI and visualized by confocal microscope for subcellular localization. Arrows indicates nuclear (n=3). Scale bars represent 20
(A) A549 cells were incubated with the indicated concentration of 1C11-HTRA2-derived peptide targeted to the mitochondrion with the targeting sequence added to the N-terminus (N-Ter) or the C-terminus (C-Ter). (B) Mitochondrion targeted 1C11-HTRA2-derived peptide was modified by replacing the three amino acids in the C or the N-terminus of the peptide, or all amino acids in the peptide with the D-confirmation of the amino acid (underlined amino acids)). Following 24 h incubation in a serum-free medium, cell proliferation was assayed using the SRB method. (C) The concentration required for 50% inhibition of cell proliferation (IC50) is presented. Results are the means±SEM (n=3).
A549 (human lung adenocarcinoma epithelial cell), HEK-293T (human embryonic kidney), H1563/CRL-5875 (non-small cell lung cancer adenocarcinoma), H-358 (bronchioalveolar carcinoma), HaCaT (spontaneously transformed aneuploid immortal human skin keratinocyte), and WI-38 (fibroblast-like fetal lung cell) cell lines were purchased from the American Type Culture Collection (ATCC) (Manassas, VA), and were maintained as per ATCC instructions. Cells were maintained in ATCC recommended medium at 37° C. in an incubator with 5% CO2. Cell lines were routinely tested for Mycoplasma contamination. For SMAC overexpression, cells were seeded (200,000 cells/well) on 6-well culture plates and allowed to adhere overnight. These adhered cells were transfected with PVMV3.1-SMAC or empty vector using the JetPRIME transfection reagent (Illkirch, France), according to the manufacturers' instructions. Medium was changed 6 h post transfection, and cells were harvested 48 h post transfection.
Cells were seeded in 96-well cell culture plates (8,000/well) and allowed to grow for 48 h. After washing with PBS, cells were fixed with 10% trichloroacetic acid, and stained with SRB for 20 min. Excess SRB were removed, and cells were washed with 1% acetic acid. SRB extraction was done using 100 mM Tris-base, and absorbance at 510 nm was determined using an Infinite M1000 plate reader (Tecan, Mannedorf, Switzerland).

In the case of `Cc1cc(O)cc(C)c1C[C@H](NC(=O)[C@@H](CCCNC(=N)N)NC(=O)[C@H](CC(C)C)NC(=O)[C@H](CCCNC(=N)N)NC(=O)[C@H](C)NC(=O)[C@H](Cc1c[nH]c2ccccc12)NC(=O)[C@H](CC(C)C)NC(=O)[C@H](CO)NC(=O)[C@@H]1CCCN1C(=O)[C@@H](NC(=O)CNC(=O)[C@H](Cc1ccc(O)cc1)NC(=O)[C@@H](NC(=O)[C@@H](NC(=O)[C@H](CCCNC(=N)N)NC(=O)[C@H](C)NC(=O)[C@H](CCCNC(=N)N)NC(=O)[C@@H]1CCCN1C(=O)[C@H](CC(=O)O)NC(=O)[C@H](CO)NC(=O)[C@@H](NC(=O)CNC(=O)[C@H](CO)NC(=O)[C@@H](NC(=O)[C@H](CC(C)C)NC(=O)[C@H](CC(C)C)NC(=O)[C@H](C)N)[C@@H](C)O)[C@@H](C)O)C(C)C)[C@@H](C)O)[C@@H](C)O)C(=O)N[C@@H](CCCN)C(=O)N[C@@H](Cc1ccccc1)C(N)=O` [1C11-D-Arg-Dmt-Orn-Phe] (H-ALLTSGTSDPRARVTYGTPSLWARL[dR][Dmt][Orn]F-NH2; N-terminus and C-terminus assumed), half-maximal inhibition (IC50) required 30.3 ± 5.5 µM.

On to `CC(C)C[C@H](NC(=O)[C@H](C)N)C(=O)N[C@@H](CC(C)C)C(=O)N[C@H](C(=O)N[C@@H](CO)C(=O)NCC(=O)N[C@H](C(=O)N[C@@H](CO)C(=O)N[C@@H](CC(=O)O)C(=O)N1CCC[C@H]1C(=O)N[C@@H](CCCNC(=N)N)C(=O)N[C@@H](C)C(=O)N[C@@H](CCCNC(=N)N)C(=O)N[C@H](C(=O)N[C@H](C(=O)N[C@@H](Cc1ccc(O)cc1)C(=O)NCC(=O)N[C@H](C(=O)N1CCC[C@H]1C(=O)N[C@@H](CO)C(=O)N[C@@H](CC(C)C)C(=O)N[C@@H](Cc1c[nH]c2ccccc12)C(=O)N[C@@H](C)C(=O)N[C@@H](CCCNC(=N)N)C(=O)N[C@@H](CC(C)C)C(=O)N[C@@H](CCCNC(=N)N)C(=O)N[C@H](CCCNC(=N)N)C(=O)N[C@@H](CCCNC(=N)N)C(=O)N[C@@H](CCCCN)C(=O)O)[C@@H](C)O)[C@@H](C)O)C(C)C)[C@@H](C)O)[C@@H](C)O` [1C11-R-{D-Arg}-RK] (H-ALLTSGTSDPRARVTYGTPSLWARLR[dR]RK-OH; N-terminus and C-terminus assumed), for which the concentration for half-maximal inhibition (IC50) was 30 ± 3.8 µM.

For the molecule `CC[C@H](C)[C@H](NC(=O)[C@@H](NC(=O)[C@H](CC(N)=O)NC(=O)[C@H](C)NC(=O)[C@H](CCCCN)NC(=O)[C@H](CC(C)C)NC(=O)[C@H](CC(C)C)NC(=O)[C@H](CC(N)=O)NC(=O)[C@H](CC(=O)O)NC(=O)[C@H](CC(C)C)NC(=O)[C@@H](NC(=O)[C@@H]1CCCN1C(=O)[C@H](CC(C)C)NC(=O)[C@@H](NC(=O)[C@H](CS)NC(=O)[C@@H](NC(=O)[C@H](CC(C)C)NC(=O)[C@H](CCC(N)=O)NC(=O)[C@H](CCC(N)=O)NC(=O)[C@@H](N)Cc1ccccc1)[C@@H](C)O)C(C)C)[C@@H](C)CC)C(C)C)C(=O)N[C@@H](CC(N)=O)C(=O)N[C@@H](CCCCN)C(=O)N[C@@H](CCC(N)=O)C(=O)N[C@@H](CCC(=O)O)C(=O)N[C@@H](Cc1c[nH]cn1)C(=O)N[C@H](CCCNC(=N)N)C(=O)N[C@@H](Cc1c(C)cc(O)cc1C)C(=O)N[C@@H](CCCN)C(=O)N[C@@H](Cc1ccccc1)C(N)=O` [1E14-D-Arg-Dmt-Orn-Phe] (H-FQQLTCVLPILDNLLKANVINKQEH[dR][Dmt][Orn]F-NH2; N-terminus and C-terminus assumed), the IC50 is > 100 µM.

In turn, `CC[C@H](C)[C@H](NC(=O)[C@@H]1CCCN1C(=O)[C@H](CO)NC(=O)[C@H](CO)NC(=O)[C@@H](NC(=O)[C@H](CO)NC(=O)[C@H](CC(C)C)NC(=O)[C@H](C)N)[C@@H](C)O)C(=O)N1CCC[C@H]1C(=O)N[C@@H](CO)C(=O)N[C@H](C(=O)N1CCC[C@H]1C(=O)N[C@@H](CCC(N)=O)C(=O)N[C@@H](CO)C(=O)N[C@@H](CCC(N)=O)C(=O)N[C@@H](C)C(=O)N[C@@H](CCC(N)=O)C(=O)N1CCC[C@H]1C(=O)N[C@@H](CCC(N)=O)C(=O)N[C@H](C(=O)NCC(=O)N[C@@H](CO)C(=O)NCC(=O)N[C@@H](C)C(=O)N[C@@H](CO)C(=O)N[C@H](CCCNC(=N)N)C(=O)N[C@@H](Cc1c(C)cc(O)cc1C)C(=O)N[C@@H](CCCN)C(=O)N[C@@H](Cc1ccccc1)C(N)=O)[C@@H](C)O)C(C)C` [2F3-D-Arg-Dmt-Orn-Phe] (H-ALSTSSPIPSVPQSQAQPQTGSGAS[dR][Dmt][Orn]F-NH2; N-terminus and C-terminus assumed) gave an IC50 of 19.6 ± 0.4 µM.

Consider `CC[C@H](C)[C@H](NC(=O)[C@@H]1CCCN1C(=O)[C@H](CO)NC(=O)[C@H](CO)NC(=O)[C@@H](NC(=O)[C@H](CO)NC(=O)[C@H](CC(C)C)NC(=O)[C@H](C)N)[C@@H](C)O)C(=O)N1CCC[C@H]1C(=O)N[C@@H](CO)C(=O)N[C@H](C(=O)N1CCC[C@H]1C(=O)N[C@@H](CCC(N)=O)C(=O)N[C@@H](CO)C(=O)N[C@@H](CCC(N)=O)C(=O)N[C@@H](C)C(=O)N[C@@H](CCC(N)=O)C(=O)N1CCC[C@H]1C(=O)N[C@@H](CCC(N)=O)C(=O)N[C@H](C(=O)NCC(=O)N[C@@H](CO)C(=O)NCC(=O)N[C@@H](C)C(=O)N[C@@H](CO)C(=O)N[C@@H](CCCNC(=N)N)C(=O)N[C@H](CCCNC(=N)N)C(=O)N[C@@H](CCCNC(=N)N)C(=O)N[C@@H](CCCCN)C(=O)O)[C@@H](C)O)C(C)C` [2F3-R-{D-Arg}-RK] (H-ALSTSSPIPSVPQSQAQPQTGSGASR[dR]RK-OH; N-terminus and C-terminus assumed), for which the half-maximal inhibitory concentration (IC50) turned out to be 29.6 ± 0.6 µM.

In turn, `Cc1cc(O)cc(C)c1C[C@H](NC(=O)[C@@H](CCCNC(=N)N)NC(=O)[C@H](CCC(N)=O)NC(=O)[C@H](CCC(N)=O)NC(=O)[C@H](CO)NC(=O)[C@H](CC(C)C)NC(=O)[C@H](Cc1ccccc1)NC(=O)[C@H](CC(=O)O)NC(=O)[C@H](Cc1ccccc1)NC(=O)[C@H](C)NC(=O)[C@H](CC(C)C)NC(=O)[C@H](CC(=O)O)NC(=O)[C@H](CO)NC(=O)[C@H](CO)NC(=O)[C@H](Cc1c[nH]cn1)NC(=O)[C@H](CC(=O)O)NC(=O)[C@@H](NC(=O)CNC(=O)[C@H](CCC(N)=O)NC(=O)[C@H](Cc1ccccc1)NC(=O)[C@H](C)NC(=O)[C@H](CCCNC(=N)N)NC(=O)[C@H](CO)NC(=O)[C@H](CO)NC(=O)[C@H](CCC(N)=O)NC(=O)[C@H](CC(N)=O)NC(=O)[C@@H]1CCCN1)[C@@H](C)O)C(=O)N[C@@H](CCCN)C(=O)N[C@@H](Cc1ccccc1)C(N)=O` [2I8-(D-Arg)-Dmt-Orn-Phe-NH2] (H-PNQSSRAFQGTDHSSDLAFDFLSQQ[dR][Dmt][Orn]F-NH2; N-terminus assumed) showed a concentration for half-maximal inhibition (IC50) of 30.2 ± 3.6 µM.

The molecule `CC(C)C[C@H](NC(=O)[C@H](CC(=O)O)NC(=O)[C@H](CO)NC(=O)[C@H](CO)NC(=O)[C@H](Cc1c[nH]cn1)NC(=O)[C@H](CC(=O)O)NC(=O)[C@@H](NC(=O)CNC(=O)[C@H](CCC(N)=O)NC(=O)[C@H](Cc1ccccc1)NC(=O)[C@H](C)NC(=O)[C@H](CCCNC(=N)N)NC(=O)[C@H](CO)NC(=O)[C@H](CO)NC(=O)[C@H](CCC(N)=O)NC(=O)[C@H](CC(N)=O)NC(=O)[C@@H]1CCCN1)[C@@H](C)O)C(=O)N[C@@H](C)C(=O)N[C@@H](Cc1ccccc1)C(=O)N[C@@H](CC(=O)O)C(=O)N[C@@H](Cc1ccccc1)C(=O)N[C@@H](CC(C)C)C(=O)N[C@@H](CO)C(=O)N[C@@H](CCC(N)=O)C(=O)N[C@@H](CCC(N)=O)C(=O)N[C@@H](CCCNC(=N)N)C(=O)N[C@H](CCCNC(=N)N)C(=O)N[C@@H](CCCNC(=N)N)C(=O)N[C@@H](CCCCN)C(=O)O` [2I8-R-{D-Arg}-RK] (H-PNQSSRAFQGTDHSSDLAFDFLSQQR[dR]RK-OH; N-terminus and C-terminus assumed) had an IC50 of 19.7 ± 4.3 µM.

Turning to `Cc1cc(O)cc(C)c1C[C@H](NC(=O)[C@H](N)CCCNC(=N)N)C(=O)N[C@@H](CCCN)C(=O)N[C@@H](Cc1ccccc1)C(=O)N[C@@H](C)C(=O)N[C@@H](CC(C)C)C(=O)N[C@@H](CC(C)C)C(=O)N[C@H](C(=O)N[C@@H](CO)C(=O)NCC(=O)N[C@H](C(=O)N[C@@H](CO)C(=O)N[C@@H](CC(=O)O)C(=O)N1CCC[C@H]1C(=O)N[C@@H](CCCNC(=N)N)C(=O)N[C@@H](C)C(=O)N[C@@H](CCCNC(=N)N)C(=O)N[C@H](C(=O)N[C@H](C(=O)N[C@@H](Cc1ccc(O)cc1)C(=O)NCC(=O)N[C@H](C(=O)N1CCC[C@H]1C(=O)N[C@@H](CO)C(=O)N[C@@H](CC(C)C)C(=O)N[C@@H](Cc1c[nH]c2ccccc12)C(=O)N[C@@H](C)C(=O)N[C@@H](CCCNC(=N)N)C(=O)N[C@@H](CC(C)C)C(=O)O)[C@@H](C)O)[C@@H](C)O)C(C)C)[C@@H](C)O)[C@@H](C)O` [D-Arg-Dmt-Orn-Phe-1C11] (H-[dR][Dmt][Orn]FALLTSGTSDPRARVTYGTPSLWARL-OH; N-terminus and C-terminus assumed), the concentration for half-maximal inhibition (IC50) came out at 89.3 ± 5.49 µM.
